One may read the IC50 as the midpoint of a concentration-inhibition curve. High values mean a need for much substance, low ones inhibition by little substance.

The target in the test is α-glucosidase. Description: enzyme assay with PNPG substrate, absorbance at […] nm; activation ([…]) at […], inhibition at higher concentration. It is filed as biochemical.

With `C=C(C=O)[C@@H]1C[C@@]2(C)C(=CC1=O)[C@H](OC(=O)/C=C/C=C/C(C)CC(C)CC)CC[C@@H]2C(=O)O` (stereo partly shown) [compound 4, 07H239-A], it took 6.54 µM to reach half-maximal inhibition (IC50).

The values are drawn from publication PMC3297001, “Four Eremophilane Sesquiterpenes from the Mangrove Endophytic Fungus Xylaria sp. BL321” (2012).
